Assay results published in patent publication US11117888B2, “Irreversible inhibitors of pyruvate kinase M2 and the use thereof” (China Medical University, priority 2020, dated 2021).

Columns and labels:
[1] = test system: PKM2, EGFR, Stat3, β-catenin in PC-9 cells; assay: Immunoblot analysis of oncogenic effectors in PC-9 cells; format: cell-based, human; details: Western blot, 24 hours
Procedure: Immunoblot analysis. PC-9 cells were seeded into 6 cm dish at a concentration of 5×10^5 cells/mL. After 24 hours, cells were treated with 0-1 μM compound 1 or DMSO alone for 24 hours. The cells were harvested at 24 hours, and protein extractions were carried out. The protein lysate was subjected to 10% SDS-PAGE and transferred to a nitrocellulose membrane (GE Healthcare Life Sciences). Protein expression was analyzed by Western blotting using primary antibodies against PKM2, EGFR, p-STAT3, STAT3, p-β-catenin (Cell Signaling Technology), β-catenin (Santa Cruz Biotechnology) and β-actin (Sigma-Aldrich), followed by incubation with horseradish peroxidase-conjugated secondary (Jackson ImmunoResearch Laboratories). Specific proteins were detected by chemiluminescence using ECL Plus Western Blotting Detection Reagents (GE Healthcare Biosciences).

[2] = Incubation with free cysteine, mass spectral analysis; format: physicochemical; details: stoichiometric amount of free cysteine in solution
Source text: In an effort to develop irreversible kinase inhibitors, we chose the core structures of several published kinase inhibitors to couple with a propiolyl moiety, which could act as an electrophilic warhead to irreversibly modify the cysteine residues of target proteins.

PC-9 lung cancer cells = assay: MTT cell viability assay, PC-9; format: cell-based; details: Homo sapiens, PC-9 (mutant EGFR), 24 hours
Source text: Cell lines, cell culture, biochemical reagents, and antibodies. MiaPaCa-2, AsPC-1, and Panc-1 human pancreatic cancer cells, MCF-7 and MDA-MB-231 breast cancer cells, SCC4 and SCC2059 oral cancer cells, PC-3 and LNCaP prostate cancer cells, H157, H460, H1975, PC-9 and H1650 lung cancer cells were obtained from the American Type Culture Collection (ATCC, Manassas, Va.). All these cells were maintained in recommended growth medium (RPMI 1640 or DMEM) supplemented with 10% fetal bovine serum (FBS) (Invitrogen, Carlsbad, Calif., USA) and antibiotics at 37° C. in a humidified incubator containing 5% CO2. For SILAC experiments, PC-9 cells were grown in SILAC DMEM medium (Thermo Fisher) supplemented with 10% dialyzed FBS and 100 μg/mL each of unlabeled L-arginine and L-lysine (light medium) or ^13C/^15N stable isotope-labeled L-arginine and L-lysine (heavy medium). […]
Cell viability assays. Drug effects on cell viability was assessed by 3-(4,5-dimethylthiazol-2-yl)-2,5-diphenyltetrazolium bromide ([…]) assays. […] The medium was then removed from each well and replaced with DMSO to dissolve the reduced MTT dye for subsequent colorimetric measurement of absorbance at 560 nm. Cell viabilities are expressed as percentages of viable cells relative to the corresponding vehicle-treated control group.

PC-9 xenograft tumors = assay: PC-9 xenograft tumor model in nude mice; format: in vivo; details: 10 mg/kg once daily i.p., 25 days
Procedure: Pursuant to the above in vitro findings, we evaluated the in vivo tumor-suppressive efficacy of compound 1 in an ectopic PC-9 xenograft tumor model. Athymic nude mice bearing established subcutaneous PC-9 tumors were randomly divided into two groups (n=8 for each group; initial tumor volume: vehicle, 50±11 mm^3; compound 1, 53±6 mm^3), and were treated once daily with compound 1 at 10 mg/kg or vehicle via intraperitoneal injection.
In vivo efficacy study. Athymic nude mice were purchased from the National Laboratory Animal Center (Taipei, Taiwan). To assess the effect of compound 1 on tumor growth in vivo, 1×10^6 PC-9 cells were mixed with Matrigel (BD Biosciences) at a 1:1 ratio and subcutaneously implanted into nude mice (6-week-old, female; a total of 16 mice). After 7 days, mice were treated with once daily vehicle or 10 mg/kg compound 1 in sterile water containing 0.5% methylcellulose (w/v)+0.1% Tween-80 (v/v) (n=8 for each group). Tumors were measured with calipers and volumes were calculated using V=(width^2×length)×0.52. On day 25, tumors were excised and weighed. Tumor specimens were collected, and expression of target proteins in tumor lysates were analyzed by Western blotting, which were quantified by ImageJ. according to a published online procedure. (https://openwetware.org/wiki/Protein_Quantification_Using_ImageJ).

PKM2 = PKM2 (Homo sapiens, UniProt P14618); assay: Gel-based ABPP competition for PKM2 binding in PC-9 cells; set-up: PC-9 cells were pre-incubated with 1 μM compound 1 for 1 hour, and treated with compound 2; endogenous in cells; host or cells: PC-9 cells; details: 1 μM compound 1, 1 hour, Western blot
Procedure: As this cell-based kinase assay could not rule out the involvement of PKM1, we examined the abilities of compound 1 to inhibit the kinase activity of recombinant PKM2 (SAE0021, Sigma-Aldrich) versus recombinant PKM1 (SRP0415, Sigma-Aldrich) using a commercial PKM assay kit. […] In brief, PC-9 cells were exposed to different concentrations of compound 2 in the presence of compound 1 (1 μM) for 1 hour, lysed, and the cell lysates were treated with biotin-azide, followed by streptavidin bead pulldown under the aforementioned conditions. […] The antigen of compound 1 was prepared by coupling this small molecule with cysteine residues of ovalbumin, which was then used for immunization in guinea pigs.
Gel-based ABPP. PC-9 cells (2×10^6) were seeded in DMEM growth medium in 10-cm plates. After overnight incubation, the growth medium was replaced with fresh medium, followed by the addition of 1 μM compound 1 or DMSO control. After 1 hour, the ABPP probe compound 2 at 0.5, 1 and 2 μM was then added, and incubated at 37° C. for an additional 1 hour. The cell lysates were subjected to copper-catalyzed Click reaction, and biotin-tagged proteins were treated with 50 μL of streptavidin-coupled magnetic beads for 16 hours at 4° C. After incubation, cell lysates were washed by PBS containing 0.5% SDS three times to remove nonspecific binding. […]

Chain of PKM2 (P14618 whole entry): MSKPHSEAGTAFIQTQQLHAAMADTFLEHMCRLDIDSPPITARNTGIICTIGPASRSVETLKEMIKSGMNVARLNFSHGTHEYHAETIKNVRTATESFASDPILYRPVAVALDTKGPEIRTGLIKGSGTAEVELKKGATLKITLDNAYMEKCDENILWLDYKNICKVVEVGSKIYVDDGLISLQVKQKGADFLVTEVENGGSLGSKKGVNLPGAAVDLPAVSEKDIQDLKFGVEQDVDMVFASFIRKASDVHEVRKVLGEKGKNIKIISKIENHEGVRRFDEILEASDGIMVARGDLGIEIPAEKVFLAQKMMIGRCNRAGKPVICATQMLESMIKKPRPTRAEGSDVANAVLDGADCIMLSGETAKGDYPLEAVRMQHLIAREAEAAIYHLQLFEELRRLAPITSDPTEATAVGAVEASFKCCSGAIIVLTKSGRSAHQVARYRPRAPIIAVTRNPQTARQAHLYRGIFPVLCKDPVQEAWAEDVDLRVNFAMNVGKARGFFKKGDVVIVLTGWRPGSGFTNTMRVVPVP

C#CC(=O)Nc1ccc(-n2nc(CCC(=O)NC)cc2-c2ccc(-c3ccc(C(F)(F)F)cc3)cc2)cc1 [compound 1, N-(4-(3-(3-(Methylamino)-3-oxopropyl)-5-(4′-(trifluoromethyl)-[1,1′-biphenyl]-4-yl)-1H-pyrazol-1-yl)phenyl)propiolamide]
expression and/or phosphorylation of PKM2, EGFR, Stat3, β-catenin [1]: downregulated the expression of PKM2 and EGFR, accompanied by parallel decreases in the phosphorylation and expression of Stat3 and β-catenin | adduct formation with free cysteine [2]: formation of a covalent 1-cysteine adduct | IC50 (PC-9 lung cancer cells): 500 nM | expression of PKM2 and binding partners in tumor lysates (PC-9 xenograft tumors; Western blot): significant suppression of the expression of PKM2 and its binding partners EGFR, Stat3, and β-catenin | body weight loss (PC-9 xenograft tumors; relative to control): No appreciable weight loss | tumor growth (tumor volume and tumor weight) (PC-9 xenograft tumors; relative to vehicle): significantly suppressed tumor growth | competition with ABPP probe compound 2 for PKM2 binding (PKM2): binding of the ABPP probe to PKM2 was attenuated
